Entries after “also recorded” stand apart in the source; their conditions may differ.
Assays:
hepatocytes = settings: {}
TF1 RPS19 KD cells = experiment: Dose titration of compounds into RPS19 KD TF1 cells (p53 by qRT-PCR, viability ATP assay); assay type: cell-based; settings: after transduction with constitutive pLKO shRNA plasmid
Description: The concentration of the compounds needed to observe a rescued DBA phenotype in TF1 RPS19 KD cells was determined via qRT-PCR analysis of p53 levels. […] Nine different cell lines were used. […] Cells were collected in separate tubes in a concentration of 1000 cells/μL to reach a concentration of 50,000 cells/50 μL per well. Cell were centrifuged at 1,200 rpm for 5 minutes. Then, the media was aspirated and cells were resuspended in RPMI+GCMSF medium.
For the preparation of Dose 1 (final concentration on plate 25 μM), a 50 μM solution was made by adding 300 μL of […] to 300 μL of RPM1+GCMSF+2% DMSO (final 1% DMSO). The 50 μM solution was further diluted to 2× when added with the cells into a well, resulting in a final concentration of 25 μM. […] DMSO 1% was used for each cell type as DMSO control.
A 96-well plate was used for analysis of each dose on each cell type. Fifty μL of each cell type and 50 μL of a diluted compound are added to the corresponding wells for a total of 100 μL RPMI+GCMSF+1% DMSO, with 50,000 cells/well. The following day, 50 μL for RNA (25,000 cells) and 50 μL for viability ATP assay (25,000 cells) were collected from each well.
Dose titration was performed as described in Example 1. […] Phenotype rescue was determined by measuring p53 levels by qRT-PCR analysis. […]

[1] = test system: normal cord blood erythroblast cells; experiment: qRT-PCR after constitutive (pLKO) shRNA knockdown in normal CD34+ cells; assay type: cell-based, human; settings: for increase in expression of p21: pLKO constitutive knockdown, compared to the level observed for the p53 knockdowns, qRT-PCR; for RQ, ALAS2: relative quantification of ALAS2 expression vs control sh_NT; for RQ, BCLXL: relative quantification of BCLXL expression vs control sh_NT; for RQ, MYC: relative quantification of MYC expression vs control sh_NT; for RQ, P53: relative quantification of P53 expression vs control shNT; for RQ, RPL11: relative quantification of RPL11 expression vs control shNT; for RQ, p21: relative quantification of p21 expression vs control sh_NT; for RQ, p53: relative quantification of p53 expression vs control sh_NT
Description: Conditionally immortalized cord blood CD34+ cells were transduced with the shRNA lentiviruses using the retronectin-transduction protocol (Clontech). Puromycin selection was performed 24-48 hours post-transduction. Cells were counted to monitor cell viability. After 12 days, which allowed for a large biomass, knockdown efficiency was analyzed. qRT-PCR was used to identify changes in mRNA, and Western blot was used to determine levels of protein depletion.
(§1) For RNA extraction, 1×10^6 cells were harvested in 500 μL of TRIZOL reagent (Thermo Scientific), and incubated for 5 minutes at room temperature. Then, 100 μL of chloroform was added to the cells, and the mixture was vortexed and then centrifuged at 12,000× gravity for 15 minutes. The aqueous phase was transferred to fresh tubes and one volume of 70% ethanol was added. The TRIZOL Plus RNA purification Kit (Thermo Scientific) was used for the remaining extraction protocol according to the manufacturer's instructions. For the conversion of RNA to cDNA the High Capacity cDNA RT kit (Thermo Scientific) was used according to the manufacturer's instructions. The cDNA was analyzed with qRT-PCR to determine the fold change of knockdown cells using Taqman Fast PCR mix and Applied Biosystems probes (Thermo Scientific).
shRNAs targeting RPS19, p53, or RPL11 were delivered to normal cord blood erythroblast cells using either the pLKO (constitutive) and pTRIPZ (inducible) plasmids described in Example 1. The mRNA expression of the p53 pathway proteins; progenitor factor GATA2; and differentiation factors HBB and GATA1 were measured by qRT-PCR. Cells not transduced with a shRNA as well as cells transduced with a non-targeting shRNA served as controls.
HBB is associated with differentiation of CD34^+ cells, and p21 is associated with the p53 pathway. […]
To determine the effect of p53 knockdown on expression of other genes, cells were also transduced with pLKO containing p53_sh4 or p53_sh5. To determine the effect of RPS19 knockdown on expression of other genes, cells were transduced with pLKO containing RPS19_sh1, RPS19_sh2, RPS19_sh3, RPS19_sh4, RPS19_sh5, and sh_NT as a control. The relative quantifications of expression of differentiation associated genes ALAS2 and HBB, immortalization factors BCLXL and MYC, and targets of interest p53 and RPS19 are shown in Table 79.

SLC37A4 gene = experiment: RNA-seq gene expression after compound treatment, insulated neighborhood containing SLC37A4; assay type: cell-based, human; settings: FIG. 8; gene implicated in glycogen storage disease 1b
PCSK9 gene = experiment: RNA-seq gene expression after compound treatment, PCSK9; assay type: cell-based, human; settings: FIG. 11C and FIG. 13; gene implicated in hypercholesterolemia
Description: (§2) In certain embodiments, hepatocytes are used to map a healthy cell population. The liver is a source of many known genetic disease and provides homogeneous primary tissue with high availability. Additionally, most toxicology is done in the liver, which provides drug toxicity insights. In some embodiments, different stimuli, such as those described herein, are contacted with a cell to induce various GSC responses in the hepatocytes. For example, small molecules may be administered to identify liver disease genes whose expression is modulated by the small molecules. These responses provide an understanding of GSCs in liver cells: genomic positions, protein composition, and genome architecture. Alternatively, blood or muscle tissue may be mapped as a healthy population, as a disease model, or as primary disease cells. About 20 million cells are generally needed for accurate ChIP (chromatin immunoprecipitation) analysis. Therefore, in some embodiments, erythroid cells may be used to develop a conditionally immortalized cell system to produce a sufficient biomass for ChIP analysis of a cell with a disease phenotype.

FKBP5 = experiment: RNA-seq gene expression after compound treatment, insulated neighborhood including FKBP5; assay type: cell-based, human; settings: FIG. 11A; gene implicated in immunosuppression
Description: as §2

[2] = test system: primary human hepatocytes; experiment: RNA-seq of primary human hepatocytes treated with 39 small molecules (pilot and validation)
[3] = test system: CB-CI-IRES-CD34+ cell line; experiment: qRT-PCR and knockdown efficiency of shRNAs in conditionally immortalized cord blood CD34+ cells; assay type: cell-based, human; settings: qRT-PCR; CB-CI-IRES-CD34+ cells transduced with pTRIPZ shRNA; B-ACTIN control; relative to pTRIPZ NT
Description: as §1
qRT-PCR was used to analyze expression of p53 pathway-associated genes p21, RPS19, and RPL11; differentiation marker HBB; and internal control B-ACTIN in the cord blood conditionally immortalized CD34+ (CB-CI-IRES-CD34+) cell line transduced with the pTRIPZ plasmid containing NT (Model 9), RPL11_sh1 (Model 4) and RPL11_sh2 (Model 5) for a RPL11 knockdown, and RPS19_sh1 (Model 6) and RPS19_sh2 (Model 7) for a RPS19 knockdown.
qRT-PCR was used to determine the levels of expression of ALAS2, GAPDH, GATA1, GATA2, HBB, and p53 in differentiated CB-CI-IRES cells using GAPDH as an internal control as shown in Table 86.
Gene expression was compared for CB-CI-IRES cells during expansion and differentiation. […] GAPDH was used as an internal control.
The efficiency of different shRNAs were tested in a conditionally immortalized cord blood erythroblast cell system to mimic DBA. The pTRIPZ was used to transduce these cells with sh1 (dox inducible shRPS19) or sh2 (dox inducible shRPS19), and pLKO was used to transduce a group of cells with sh5 (shRPS19). qRT-PCR was used to determine the level of gene expression in RPS19 mRNA knockdown in each group of cells. The percent of knockdown is shown in Table 90 after 1 week (T1), 2 weeks (T2), and 3 weeks (T3) for each shRNA.

COL1A1 gene = experiment: RNA-seq gene expression after compound treatment, COL1A1; assay type: cell-based, human; settings: FIG. 11B; gene implicated in liver fibrosis
Description: FIG. 11B are ChIP-seq results for an insulated neighborhood and RNA-seq results showing modulation of the COL1A1 gene implicated in liver fibrosis by BIO inhibitor (MT-209), a Wnt pathway agonist.
as §2

[4] = relative quantification of HBB expression vs control shNT, pLKO constitutive shRNA, GAPDH internal control, Table 78
[5] = relative quantification of HBB expression vs control sh_NT, pLKO shRNA, B-ACTIN, Table 79
[6] = pLKO constitutive shRNA, GAPDH internal control, Table 78
[7] = relative quantification of RPS19 expression vs control shNT, pLKO constitutive shRNA, GAPDH internal control, Table 78
[8] = relative quantification of RPS19 expression vs control sh_NT, pLKO shRNA, B-ACTIN, Table 79

| Compound | Cell density (TF1 RPS19 KD cells) | increase in expression of p21 [1] [fold] | RQ, ALAS2 ([1]; pLKO shRNA, B-ACTIN, Table 79) | RQ, BCLXL ([1]; pLKO shRNA, B-ACTIN, Table 79) | RQ, HBB [1, 4] | RQ, HBB [1, 5] | RQ, MYC ([1]; pLKO shRNA, B-ACTIN, Table 79) | RQ, P53 [1, 6] | RQ, RPL11 [1, 6] | RQ, RPS19 [1, 7] | RQ, RPS19 [1, 8] | RQ, p21 ([1]; pLKO shRNA, B-ACTIN, Table 79) | RQ, p53 ([1]; pLKO shRNA, B-ACTIN, Table 79) | other results |
| --- | --- | --- | --- | --- | --- | --- | --- | --- | --- | --- | --- | --- | --- | --- |
| Cn1cncc1[C@@](N)(c1ccc(Cl)cc1)c1ccc2c(c1)c(-c1cccc(Cl)c1)cc(=O)n2C [Tipifarnib] |  |  |  |  |  |  |  |  |  |  |  |  |  | # of genes having significantly altered expression (hepatocytes): 34 |
| RPS19_sh5: shRNA targeting RPS19 in the constitutive pLKO plasmid, SEQ ID NO 32576 (CGGCGTCATGCCCAGCCACTT; listed as Homo sapiens) | 962,000 cells/mll | 5.8 | 1.51 | 0.99 | 0.75 | 0.15 | 1.43 | 1.41 | 1.09 | 0.65 | 0.15 | 5.75 | 0.74 |  |
| C[C@]12C=CC(=O)C=C1CC[C@@H]1[C@@H]2C(=O)C[C@@]2(C)[C@H]1CC[C@]2(O)C(=O)CO [prednisone] |  |  |  |  |  |  |  |  |  |  |  |  |  | expression of the SLC37A4 gene (RNA-seq) (SLC37A4 gene): upregulation; expression of the PCSK9 gene (RNA-seq) (PCSK9 gene): modulation; expression of FKBP5 (RNA-seq) (FKBP5): upregulates; significant modulation of gene expression ([2]; RNA-seq, p-value≤0.05, primary human hepatocytes, the modulated genes are listed in the block): significantly (p-value≤0.05) modulate; gene upregulated by the compound ([2]; RNA-seq, treated cells compared to vehicle control, gene named in the value): upregulate the SLC37A4 gene; also recorded: SLC37A4 was significantly upregulated; also recorded: upregulate FKPP5; Number (#) of genes having significantly changed expression ([2]; pilot RNA-seq study of Example 2, significance: FPKM≥0.5, log 2(fold change)≥1, q-value ≤0.05): 247 |
| RPS19_sh1 (CTACGATGAGAACTGGTTCT; expressed or natural sequence; listed as Homo sapiens) |  |  | 0.02 | 0.34 | 0.04 | 0.00 | 0.52 | 1.34 | 0.74 | 0.59 | 0.47 | 0.53 | 0.65 | RQ of HBB [3]: 2.28; RQ of RPL11 [3]: 1.52; RQ of p21 [3]: 1.35 |
| RPS19_sh4: shRNA targeting RPS19 in the constitutive pLKO plasmid, SEQ ID NO 32575 (GCTTGCTCCCTACGATGAGAA; listed as Homo sapiens) | 124,000 cells/mll | 12.8 | 0.16 | 0.87 | 0.42 | 0.03 | 1.03 | 1.24 | 1.02 | 1.54 | 0.43 | 12.78 | 1.74 |  |
| O=C1Nc2cc(Br)ccc2/C1=C1/Nc2ccccc2/C1=N\O [BIO inhibitor] |  |  |  |  |  |  |  |  |  |  |  |  |  | expression of the COL1A1 gene (RNA-seq) (COL1A1 gene): modulation |

— patent US20210254056A1, “IDENTIFICATION AND TARGETED MODULATION OF GENE SIGNALING NETWORKS” (CAMP4 THERAPEUTICS CORPORATION, priority 2017, published 2021)
